pIC50: −log10 of the molar value.
biological target: T1, CDK4/CyclinD1 (Homo sapiens, UniProt P11802); experiment: Assay for inhibition of CDK4/CyclinD1 (Caliper microfluidic kinase assay); type: biochemical; conditions: CDK4/CyclinD1, 200 μM ATP
T1 construct: purchased Thermofisher PR8064A
Method: The CDK4 enzyme assay for IC50 determination was performed as follows. Microfluidic kinase detection technology (Caliper) was used to monitor the phosphorylation of peptide substrate by CDK4/CyclinD1. The total reaction volume was 15 μL containing buffer A (100 mM HEPES (pH 7.5), 0.1% BSA, 0.01% Triton X-100, 1 mM DTT, 10 mM MgCl2, 10 μM Sodium Orthovanadate, 10 μM Beta-Glycerophosphate), 200 μM ATP, 1 nM CDK4/CyclinD1 (Thermofisher, PR8064A), 1 μM FL-34 (5-FAM-[…]), and the test compound at appropriate dilutions in DMSO. All components were added to the 384-well plate (Corning, 4514), and incubated at Room Temperature for 3 hours. The reaction was terminated by addition of 15 μL Stop Buffer (180 mM HEPES (pH 7.5), 20 mM EDTA, Coating-3 reagent (PerkinElmer, 760050)). The plate was then loaded on Caliper EZ Reader (EZ Reader II, PerkinElmer, HD-4HYSG2772), and the reaction mixtures including substrate and product were sipped into the microfluidic chip for separation and detection. The IC50 values of the test compound were determined by fitting the inhibition curves by 4 parameter sigmoidal dose-response model using the Xlfit5/GraphPad Prism 5 software.

T1 sequence (P11802 whole entry): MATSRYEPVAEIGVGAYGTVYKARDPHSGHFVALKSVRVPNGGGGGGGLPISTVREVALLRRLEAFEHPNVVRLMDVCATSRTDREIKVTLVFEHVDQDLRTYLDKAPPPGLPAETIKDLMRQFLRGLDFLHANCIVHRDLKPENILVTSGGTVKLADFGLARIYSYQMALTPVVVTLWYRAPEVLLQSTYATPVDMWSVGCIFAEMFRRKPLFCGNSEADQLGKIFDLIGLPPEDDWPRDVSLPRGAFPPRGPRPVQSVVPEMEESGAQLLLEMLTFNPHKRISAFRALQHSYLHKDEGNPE
T1 sequence (P24385 whole entry partner): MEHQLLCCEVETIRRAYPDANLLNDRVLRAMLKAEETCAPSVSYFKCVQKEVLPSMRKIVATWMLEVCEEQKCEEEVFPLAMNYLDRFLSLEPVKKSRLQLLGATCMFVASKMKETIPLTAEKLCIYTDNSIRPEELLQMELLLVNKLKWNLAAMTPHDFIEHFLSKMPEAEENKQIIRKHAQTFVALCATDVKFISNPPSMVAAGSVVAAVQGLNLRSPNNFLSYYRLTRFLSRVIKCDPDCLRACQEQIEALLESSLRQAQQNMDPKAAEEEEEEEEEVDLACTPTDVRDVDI

Structure (SMILES)	pIC50
CC(C)c1cnn2ccc(-c3ccnc(Nc4ccc(C(=O)N5CC(N(C)C)C5)cc4)n3)cc12 [compound 154]	> 8.00
CCNC1CCN(c2ccc(Nc3nccc(-c4ccn5ncc(C(C)C)c5c4)n3)c(F)c2)C(=O)C1 (stereo not shown) [compound 230]	> 8.00
CC(C)n1cnc2c(F)nc(-c3ccnc(NC4CCN(S(C)(=O)=O)CC4)n3)cc21 [compound 310]	7.00 to 8.00
CC(C)c1cnn2ccc(-c3ccnc(Nc4cccc(N5CCNCC5=O)c4)n3)cc12 [compound 187]	7.00 to 8.00
CC(C)c1cnn2ccc(-c3ccnc(Nc4ccc(N5CCNCC5=O)cc4O)n3)cc12 [compound 188]	7.00 to 8.00
CNC1CN(C(=O)c2ccc(Nc3nccc(-c4ccn5ncc(C(C)C)c5c4)n3)cc2)C1 [compound 190]	> 8.00
CN(C)C1CCN(c2ccc(Nc3nccc(-c4ccn5ncc(C(C)(C)C)c5c4)n3)c(F)c2)C(=O)C1 (stereo not shown) [compound 181]	> 8.00
CC(C)c1cnn2ccc(-c3ccnc(Nc4ccc(C(=O)N5CCC(N(C)C)C5)cc4F)n3)cc12 (stereo not shown) [compound 152]	7.00 to 8.00
CC1(C)COc2c(F)cc(-c3ccnc(Nc4ccc(N5CCCC(N)C5=O)nc4)n3)cc21 (stereo not shown) [compound 264]	> 8.00
CC(C)c1cnn2ccc(-c3ccnc(Nc4ccc(C(=O)N5CCC(N(C)C)C5)cc4)n3)cc12 (stereo not shown) [compound 151]	> 8.00
CC(C)c1cnn2ccc(-c3ccnc(Nc4ccc(C(=O)N5CC(O)C5)cc4)n3)cc12 [compound 153]	> 8.00

Second part, the molecule after the results:

pIC50	Structure (SMILES)
> 8.00	CC(C)c1cnn2ccc(-c3ccnc(Nc4ccc(N5CCC(C)(N)CC5=O)cc4Cl)n3)cc12 (stereo not shown) [compound 212]
7.00 to 8.00	COc1nc(-c2ccnc(Nc3ccn(CC4CCNCC4)n3)n2)cc2c1ncn2C(C)C [compound 108]
7.00 to 8.00	COc1nc(-c2ccnc(Nc3ccc4c(n3)CCN(C(=O)CO)C4)n2)cc2c1ncn2C(C)C [compound 141]
7.00 to 8.00	COc1nc(-c2nc(Nc3ccc(C(=O)N4CCC(N)CC4)c(C)n3)ncc2F)cc2c1nc(C)n2C(C)C [compound 120]
7.00 to 8.00	COc1nc(-c2nc(Nc3ccc(N4CCNC5(CC5)C4)cn3)ncc2F)cc2c1nc(C)n2C(C)C [compound 110]
7.00 to 8.00	CCN1CCN(Cc2ccc(Nc3ncc(F)c(N4CCc5ncn(C(C)C)c5C4)n3)nc2)CC1 [compound 251]
> 8.00	CC(C)n1cnc2c1CN(c1nc(Nc3ccc4c(c3)CS(=O)(=O)C4)ncc1F)CC2 [compound 255]
7.00 to 8.00	CC(C)c1cnc2cnc(-c3ccnc(Nc4ccc(N5CCNCC5=O)cn4)n3)cn12 [Synthetic Example 143]
> 8.00	CC(C)c1cnn2ccc(-c3ccnc(Nc4ccc(N5CCCC(N)C5=O)cc4F)n3)cc12 (stereo not shown) [compound 223]
> 8.00	CC(C)n1cnc2c(F)nc(-c3ccnc(Nc4ccc(N5CCC(N(C)C)CC5=O)cc4F)n3)cc21 (stereo not shown) [compound 305]
7.00 to 8.00	COc1cc(N2CCCC(N)C2=O)ccc1Nc1nccc(-c2ccn3ncc(C(C)C)c3c2)n1 (stereo not shown) [compound 222]
> 8.00	CCN1CCN(c2ccc(Nc3nccc(-c4cc5c(ncn5C(C)C)c(F)n4)n3)nc2)C(=O)C1 [compound 274]

biological target: T2, CDK2/CyclinE1 (Homo sapiens, UniProt P24941); experiment: Assay for inhibition of CDK2/CyclinE1 (Caliper microfluidic kinase assay); type: biochemical; conditions: CDK2/CyclinE1, 100 μM ATP; read-out: CDK2 IC50
T2 construct: purchased SignalChem C29-18G
Method: The CDK2 enzyme assay for IC50 determination was performed as follows. Microfluidic kinase detection technology (Caliper) was used to monitor the phosphorylation of peptide substrate by CDK2/CyclinE1. The total reaction volume was 15 μL containing buffer A (100 mM HEPES (pH 7.5), 0.1% BSA, 0.01% Triton X-100, 1 mM DTT, 10 mM MgCl2, 10 μM Sodium Orthovanadate, 10 μM Beta-Glycerophosphate), 100 μM ATP, 5 nM CDK2/CyclinE1 (SignalChem, C29-18G), 5 μM FL-18 (5-FAM-QSPKKG-NH2), and the test compound at appropriate dilutions in DMSO. All components were added to the 384-well plate (Corning, 4514), and incubate at Room Temperature for 3 hours. The reaction was terminated by addition of 15 μL Stop Buffer (180 mM HEPES (pH 7.5), 20 mM EDTA, Coating-3 reagent (PerkinElmer, 760050)). The plate was loaded on Caliper EZ Reader (EZ Reader II, PerkinElmer, HD-4HYSG2772), and the reaction mixtures including substrate and product were sipped into the microfluidic chip for separation and detection. The IC50 values of the test compound were determined by fitting the inhibition curves by 4 parameter sigmoidal dose-response model using the Xlfit5/GraphPad Prism 5 software.

Structure (SMILES)	pIC50
CC(C)c1cnn2ccc(-c3ccnc(Nc4ccc(C(=O)N5CC(N(C)C)C5)cc4)n3)cc12 [compound 154]	> 8.00
CCNC1CCN(c2ccc(Nc3nccc(-c4ccn5ncc(C(C)C)c5c4)n3)c(F)c2)C(=O)C1 (stereo not shown) [compound 230]	> 8.00
CC(C)n1cnc2c(F)nc(-c3ccnc(NC4CCN(S(C)(=O)=O)CC4)n3)cc21 [compound 310]	7.00 to 8.00
CC(C)c1cnn2ccc(-c3ccnc(Nc4cccc(N5CCNCC5=O)c4)n3)cc12 [compound 187]	7.00 to 8.00
CC(C)c1cnn2ccc(-c3ccnc(Nc4ccc(N5CCNCC5=O)cc4O)n3)cc12 [compound 188]	7.00 to 8.00
CNC1CN(C(=O)c2ccc(Nc3nccc(-c4ccn5ncc(C(C)C)c5c4)n3)cc2)C1 [compound 190]	7.00 to 8.00
CN(C)C1CCN(c2ccc(Nc3nccc(-c4ccn5ncc(C(C)(C)C)c5c4)n3)c(F)c2)C(=O)C1 (stereo not shown) [compound 181]	> 8.00
CC(C)c1cnn2ccc(-c3ccnc(Nc4ccc(C(=O)N5CCC(N(C)C)C5)cc4F)n3)cc12 (stereo not shown) [compound 152]	7.00 to 8.00
CC1(C)COc2c(F)cc(-c3ccnc(Nc4ccc(N5CCCC(N)C5=O)nc4)n3)cc21 (stereo not shown) [compound 264]	7.00 to 8.00
CC(C)c1cnn2ccc(-c3ccnc(Nc4ccc(C(=O)N5CCC(N(C)C)C5)cc4)n3)cc12 (stereo not shown) [compound 151]	> 8.00
CC(C)c1cnn2ccc(-c3ccnc(Nc4ccc(C(=O)N5CC(O)C5)cc4)n3)cc12 [compound 153]	> 8.00

More lines, now with the values ahead:

pIC50	Structure (SMILES)
> 8.00	CC(C)c1cnn2ccc(-c3ccnc(Nc4ccc(N5CCC(C)(N)CC5=O)cc4Cl)n3)cc12 (stereo not shown) [compound 212]
< 6.00	COc1nc(-c2ccnc(Nc3ccn(CC4CCNCC4)n3)n2)cc2c1ncn2C(C)C [compound 108]
< 6.00	COc1nc(-c2ccnc(Nc3ccc4c(n3)CCN(C(=O)CO)C4)n2)cc2c1ncn2C(C)C [compound 141]
< 6.00	COc1nc(-c2nc(Nc3ccc(C(=O)N4CCC(N)CC4)c(C)n3)ncc2F)cc2c1nc(C)n2C(C)C [compound 120]
< 6.00	COc1nc(-c2nc(Nc3ccc(N4CCNC5(CC5)C4)cn3)ncc2F)cc2c1nc(C)n2C(C)C [compound 110]
< 6.00	CCN1CCN(Cc2ccc(Nc3ncc(F)c(N4CCc5ncn(C(C)C)c5C4)n3)nc2)CC1 [compound 251]
> 8.00	CC(C)n1cnc2c1CN(c1nc(Nc3ccc4c(c3)CS(=O)(=O)C4)ncc1F)CC2 [compound 255]
< 6.00	CC(C)c1cnc2cnc(-c3ccnc(Nc4ccc(N5CCNCC5=O)cn4)n3)cn12 [Synthetic Example 143]
7.00 to 8.00	CC(C)c1cnn2ccc(-c3ccnc(Nc4ccc(N5CCCC(N)C5=O)cc4F)n3)cc12 (stereo not shown) [compound 223]
> 8.00	CC(C)n1cnc2c(F)nc(-c3ccnc(Nc4ccc(N5CCC(N(C)C)CC5=O)cc4F)n3)cc21 (stereo not shown) [compound 305]
7.00 to 8.00	COc1cc(N2CCCC(N)C2=O)ccc1Nc1nccc(-c2ccn3ncc(C(C)C)c3c2)n1 (stereo not shown) [compound 222]
6.00 to 7.00	CCN1CCN(c2ccc(Nc3nccc(-c4cc5c(ncn5C(C)C)c(F)n4)n3)nc2)C(=O)C1 [compound 274]

Source: patent US20220296595A1, “CDK INHIBITORS” (QILU REGOR THERAPEUTICS INC., priority 2019, published 2022)
